Entries after “also recorded” stand apart in the source; their conditions may differ. Read-outs that look alike come from different tables or passages of the source. Peptide text beside a SMILES is read from it.
Key:
ACE = test system: ACE; design: method as in 5 sources, ref 34 = [34]; PMID 12843654; doi:10.1271/bbb.67.1278; 34. Kuba M. Tanaka K. Tawata S. Takeda Y. Yasuda M. Angiotensin I-converting enzyme inhibitory peptides isolated from tofuyo fermented soybean food Biosci. Biotechnol. Biochem. 2003 67 1278 1283 10.12 ||| ref 33 = [33]; PMID 25410725; doi:10.1002/bab.1321; 33. Sornwatana T. Bangphoomi K. Roytrakul S. Wetprasit N. Choowongkomon K. Ratanapo S. Chebulin: Terminalia chebula Retz. fruit-derived peptide with angiotensin-I–converting enzyme inhibitory activity ||| ref 35 = [35]; doi:10.1016/j.foodchem.2010.05.026; 35. Jiang Z. Tian B. Brodcrob A. Huo G. Production, analysis and in vivo evaluation of novel angiotensin-I-converting enzyme inhibitory peptides from bovine casein Food Chem. 2010 123 779 786 10.1016/ ||| ref 7 = [7]; doi:10.1016/j.foodchem.2009.04.086; 7. Lee S.H. Qian Z.J. Kim S.K. A novel angiotensin I converting enzyme inhibitory peptide from tuna frame protein hydrolysate and its antihypertensive effect in spontaneously hypertensive rats Food Ch ||| ref 36 = [36]; PMID 23140680; doi:10.1016/j.foodchem.2011.01.010; 36. Jang J.H. Jeong S.C. Kim J.H. Lee Y.H. Ju Y.C. Lee J.S. Characterisation of a new antihypertensive angiotensin I-converting enzyme inhibitory peptide from Pleurotus cornucopiae Food Chem. 2011 127; details: cited from earlier work; for IC50: read-out: IC50 (ACE, non-competitive peptide)
pepsin and pancreatin = assay: In vitro simulated gastrointestinal digestion, then ACE-inhibitory activity assay and ESI-MS; type: in vitro ADME
Method: Pepsin (1 mg) was added, and the mixture was stirred at 37 °C for 2 h. Then, the pH was adjusted to 6 with 0.9 M NaHCO3, and afterwards to 7.5 with 1 M NaOH. Pancreatin (1 mg) was added, and the solution was incubated at 37 °C for 4 h.

[1] = from Pleurotus cornucopiae mushroom

GDLGKTTTVSNWSPPKYKDTP
IC50 (ACE; from tuna frame protein hydrolysate): 11.3 µM

N=C(N)NCCC[C@H](NC(=O)[C@H](CC(=O)O)NC(=O)[C@@H](N)CC(N)=O)C(=O)N1CCC[C@H]1C(=O)O [NDRP] (H-NDRP-OH)
maximal ACE inhibition of the in vitro-digested sample (pepsin and pancreatin; 10 mg mL−1 in H2O, pepsin, pH 2, 37 °C, 2 h, then pancreatin, pH 7.5, 37 °C, 4 h, enzymes deactivated in boiling water bath 10 min, freeze-dried, read-out ACE assay): 82.47 ± 1.07%
residual ACE-inhibitory activity of the digested sample relative to pure peptide (pepsin and pancreatin; after pepsin (pH 2, 2 h) and pancreatin (pH 7.5, 4 h) at 37 °C, ratio of maximal ACE inhibition, digested vs pure NDRP): 94%
stability toward in vitro simulated gastrointestinal digestion (in words) (pepsin and pancreatin; pepsin (pH 2, 2 h) then pancreatin (pH 7.5, 4 h), 37 °C, ACE assay and ESI-MS (peak of intact peptide observed)): stable towards gastrointestinal simulated digestion; also recorded: might be resistant to gastrointestinal digestion; also recorded: highly stable

RLPSEFDLSAFLRA
IC50 (ACE, non-competitive peptide) (ACE; [1]): 450 µg/mL

RYPSYG
IC50 (ACE, non-competitive peptide) (ACE; from bovine casein hydrolysate): 54 µg/mL

DENSKF
IC50 (ACE; from fruits of T. chebula Retz.): 100 µM

DERF
IC50 (ACE, non-competitive peptide) (ACE; from bovine casein hydrolysate): 21 µg/mL

RLSGQTIEVTSEYLFRH
IC50 (ACE, non-competitive peptide) (ACE; [1]): 1100 µg/mL
